Measurements: PMC12766724, “Synthesis, Anthelmintic Activity, and Mechanism of Action of 5‑Aryl‑1H‑indoles” (Journal of Agricultural and Food Chemistry, 2025)
Read-outs that look alike come from different tables or passages of the source.

Columns and labels:
C. elegans N2 wild-type = assay: Chitinase assay (reproductive capacity); type: in vivo, Caenorhabditis elegans
Experimental: (§1) The effect of compounds on C. elegans was evaluated using the Chitinase assay as we described previously.
After exposing L1 larvae to the compounds for 4 days, we observed the populations under a microscope and measured the Chitinase activity. The larvae produce the enzyme while hatching, and its activity is indicative of the reproductive capacity of the worms. Populations that fail to reproduce due to acute or reproductive toxicity or developmental abnormalities are detected.

[1] = system: C. elegans CB211 lev-1(e211) IV.; assay: Chitinase assay (reproductive capacity); type: in vivo; details: Caenorhabditis elegans; levamisole-resistant strain
Experimental: (§2) C. elegans strains used in this study were N2 (wild-type), levamisole-resistant strains ZZ15 (lev-8(x15) X) and […] (lev-1(e211) IV), ivermectin-resistant strain DA1316 (avr-14(ad1305) I; avr-15(vu227) glc-1(pk54) V), mebendazole-resistant strain […] (ben-1(e1880) III), and three strains with mutations in succinate dehydrogenase, RP2699, RP2700, and RP2702. The worms were cultivated on Nematode Growth Medium agar plates seeded with Escherichia coli OP50 in 20 °C according to the standard cultivation protocols. Strains RP2699, RP2700, and RP2702 were generated by Prof. Peter Roy’s group. All other strains and bacteria were purchased from the Caenorhabditis Genetics Center (CGC, Minneapolis, MN).
as §1
(§3) Lastly, strain DA1316 has mutations in three genes encoding subunits of the glutamate-gated chloride channel and is highly resistant to avermectins.

[2] = system: C. elegans CB3474 ben-1(e1880) III.; assay: Chitinase assay (reproductive capacity); type: in vivo; details: Caenorhabditis elegans; mebendazole-resistant strain
Experimental: as §2, §1, §3

[3] = system: C. elegans DA1316 avr-14(ad1305) I; avr-15(vu227) glc-1(pk54) V.; assay: Chitinase assay (reproductive capacity); type: in vivo; details: Caenorhabditis elegans; ivermectin-resistant strain
Experimental: as §2, §1, §3

[4] = system: C. elegans ZZ15 lev-8(x15) X.; assay: Chitinase assay (reproductive capacity); type: in vivo; details: Caenorhabditis elegans; levamisole-resistant strain
Experimental: as §2, §1, §3

[5] = system: age unsynchronized Ditylenchus destructor; assay: Motility on WMicrotracker ONE; type: in vivo
Experimental: Populations of D. destructor, kindly provided by Central Institute for Supervising and Testing in Agriculture, the Ministry of Agriculture of the Czech Republic, were maintained according to the protocol previously described here.
(§4) The effect of compounds on motility of H. contortus, D. destructor, and H. schachtii was evaluated using the WMicrotracker ONE platform according to previously published protocols. ,
(§5) The instrument evaluates the activity of small animals by counting how many times infrared light microbeams passing through the wells of a microtiter plate are interrupted. In age-unsynchronized populations of D. destructor, we observed reduced motility of worm populations treated with the halogenated derivatives i-19, i-20, and i-21 (Figures A, S2.1A, S2.2A and Table S2.1). […] The decreases in mean activity counts after 72 h of treatment at 100 μM were 85% and 97%, respectively.

[6] = system: Heterodera schachtii second-stage juveniles (J2); assay: Motility on WMicrotracker ONE; type: in vivo
Experimental: H. schachtii was maintained on mustard (Sinapsis alba cv. Albatros) roots grown in vitro on modified KNOP medium according to the previously published protocols. ,
as §4, §5

[7] = system: Arabidopsis thaliana Col-0; assay: Germination rate and phytotoxicity; type: in vivo; details: for average fraction of germinated seeds: 5 DPS; for main root length / plant weight: 10 DPS
Experimental: Wild-type A. thaliana (Col-0 ecotype) seeds were sterilized with 70% EtOH with 0.1% Tween-20 solution (2 × 1 mL) for 10 min, rinsed with 96% EtOH (1 × 1 mL) for 10 min, and kept in the fridge (4 °C in the dark). Seeds were sown on a sterile 1/2 MS medium supplemented with 0.3% DMSO as a mock and test compounds at 5, 10, 50, and 100 μM concentrations in 0.3% DMSO. Plates were kept in long-day light conditions (22 °C/20 °C, 16 h light/8 h dark, 100 μmol m^–2 s^–1). After 5 days, the germination rate was evaluated. After an additional 5 days, primary root growth was measured with ImageJ software (https://imagej.nih.gov/ij/), and seedlings were weighted.

Skin fibroblasts (BJ) = assay: Resazurin assay, 3-day treatment; type: cell-based, human; details: BJ
Experimental: Skin fibroblasts (BJ) were obtained from the American Type Culture Collection (ATCC, Manassas, VA), while human keratinocytes (HaCaT) were sourced from the German Cancer Research Center in Heidelberg, Germany. Cells were cultured in a standard DMEM medium from Sigma-Aldrich, supplemented with 10% fetal bovine serum, 2 mM glutamine, 100 U/mL penicillin, and 100 μg/mL streptomycin. Cultures were maintained under standard conditions (37 °C, 5% CO2, humidified atmosphere) and subcultured two to three times per week. We assessed the effect of 3-day compound treatments on cell viability using a resazurin reduction assay measuring mitochondrial activity. Approximately 5,000 cells in 80 μL of culture medium were seeded into the wells of a 96-well plate. Twenty-four hours later, 20 μL of 5-fold concentrated test compound solutions was added and tested across three concentrations prepared through 2-fold serial dilutions. The highest final concentration was 40 μM. After 72 h, we added an 11-fold concentrated resazurin solution to the wells, achieving a final concentration of 0.0125 μM. Fluorescence (ex = 570 nm, em = 610 nm) was measured after 3 h of incubation. […]

[8] = system: human keratinocytes (HaCaT); assay: Resazurin assay, 3-day treatment; type: cell-based
Experimental: Skin fibroblasts (BJ) were obtained from the American Type Culture Collection (ATCC, Manassas, VA), while human keratinocytes (HaCaT) were sourced from the German Cancer Research Center in Heidelberg, Germany. Cells were cultured in a standard DMEM medium from Sigma-Aldrich, supplemented with 10% fetal bovine serum, 2 mM glutamine, 100 U/mL penicillin, and 100 μg/mL streptomycin. Cultures were maintained under standard conditions (37 °C, 5% CO2, humidified atmosphere) and subcultured two to three times per week. We assessed the effect of 3-day compound treatments on cell viability using a resazurin reduction assay measuring mitochondrial activity. Approximately 5,000 cells in 80 μL of culture medium were seeded into the wells of a 96-well plate. Twenty-four hours later, 20 μL of 5-fold concentrated test compound solutions was added and tested across three concentrations prepared through 2-fold serial dilutions. The highest final concentration was 40 μM. After 72 h, we added an 11-fold concentrated resazurin solution to the wells, achieving a final concentration of 0.0125 μM. Fluorescence (ex = 570 nm, em = 610 nm) was measured after 3 h of incubation.
The disubstituted derivatives i-25 and i-27 were the most toxic in the set, causing around a 50% decrease in viability of HaCaT cells at 40 μM.

[9] = 10 µM group, initial (prior to the treatment)
[10] = 50 µM group, initial (prior to the treatment)
[11] = 100 µM group, initial (prior to the treatment)

Compound | IC50 (C. elegans N2 wild-type) [µM] | IC50 (C. elegans N2 wild-type; Caenorhabditis elegans) [µM] | IC50 [1] [µM] | IC50 [2] [µM] | IC50 [3] [µM] | IC50 [4] [µM] | average activity counts [5, 9] | average activity counts ([5]; 10 µM, 48 h) | average activity counts ([5]; 10 µM, 72 h) | average activity counts [5, 10] | average activity counts ([5]; 50 µM, 48 h) | average activity counts ([5]; 50 µM, 72 h) | average activity counts [5, 11] | average activity counts ([5]; 100 µM, 48 h) | average activity counts ([5]; 100 µM, 72 h) | average activity counts [6, 9] | average activity counts ([6]; 10 µM, 48 h) | average activity counts ([6]; 10 µM, 72 h) | average activity counts [6, 10] | average activity counts ([6]; 50 µM, 48 h) | further results
CCOc1cccc(-c2ccc3[nH]ccc3c2)c1 [i-9] | 9.76 ± 0.93 | < 10 | 9.65 ± 1.82 | 10.2 ± 0.5 | 9.34 ± 2.01 | 9.71 ± 1.34 | 199 | 183 | 205 | 200 | 176 | 212 | 228 | 171 | 181 | 167 | 161 | 159 | 201 | 207 | average activity counts ([6]; 50 µM, 72 h): 188; average activity counts [6, 11]: 193; average activity counts ([6]; 100 µM, 48 h): 202; average activity counts ([6]; 100 µM, 72 h): 171; average fraction of germinated seeds ([7]; 5 µM): 0.96; main root length ([7]; 5 µM): 40.21 mm; plant weight ([7]; 5 µM): 33.97 mg; average fraction of germinated seeds ([7]; 10 µM): 0.95; main root length ([7]; 10 µM): 41.46 mm; plant weight ([7]; 10 µM): 35.69 mg; average fraction of germinated seeds ([7]; 50 µM): 0.96; main root length ([7]; 50 µM): 35.05 mm; plant weight ([7]; 50 µM): 31.4 mg; Average viability (signal intensity relative to control) (Skin fibroblasts (BJ); 10 µM): 0.92 ± 0.03; Average viability (signal intensity relative to control) (Skin fibroblasts (BJ); 20 µM): 0.97 ± 0.04; Average viability (signal intensity relative to control) (Skin fibroblasts (BJ); 40 µM): 0.94 ± 0.03; Average viability (signal intensity relative to control) ([8]; 10 µM): 0.97 ± 0.04; Average viability (signal intensity relative to control) ([8]; 20 µM): 1.01 ± 0.05; Average viability (signal intensity relative to control) ([8]; 40 µM): 0.99 ± 0.02
CC(C)Oc1cccc(-c2ccc3[nH]ccc3c2)c1 [i-15] | 7.93 ± 0.66 | < 10 | 8.86 ± 0.9 | 10.2 ± 0.51 | 9.1 ± 2.21 | 8.55 ± 1.04 | 224 | 201 | 224 | 226 | 198 | 218 | 217 | 199 | 206 | 169 | 191 | 164 | 188 | 193 | average activity counts ([6]; 50 µM, 72 h): 144; average activity counts [6, 11]: 195; average activity counts ([6]; 100 µM, 48 h): 212; average activity counts ([6]; 100 µM, 72 h): 175; average fraction of germinated seeds ([7]; 5 µM): 0.98; main root length ([7]; 5 µM): 36.67 mm; plant weight ([7]; 5 µM): 35.21 mg; average fraction of germinated seeds ([7]; 10 µM): 0.93; main root length ([7]; 10 µM): 36.13 mm; plant weight ([7]; 10 µM): 31.55 mg; average fraction of germinated seeds ([7]; 50 µM): 0.95; main root length ([7]; 50 µM): 35.01 mm; plant weight ([7]; 50 µM): 29.94 mg; Average viability (signal intensity relative to control) (Skin fibroblasts (BJ); 10 µM): 1 ± 0.03; Average viability (signal intensity relative to control) (Skin fibroblasts (BJ); 20 µM): 1.03 ± 0.04; Average viability (signal intensity relative to control) (Skin fibroblasts (BJ); 40 µM): 0.98 ± 0.05; Average viability (signal intensity relative to control) ([8]; 10 µM): 1.01 ± 0.04; Average viability (signal intensity relative to control) ([8]; 20 µM): 1.04 ± 0.05; Average viability (signal intensity relative to control) ([8]; 40 µM): 1.01 ± 0.05
